What was measured:
Candida albicans = assay: administration to the subject with Candidemia (Candida albicans); type: in vivo, human
S. aureus isolate [1] = assay: agar-based antimicrobial gradient test (e.g., ETEST); type: cell-based; conditions: S. aureus isolate from subject's blood, Example 3
Procedure: (§1) A blood sample is obtained from a subject suspected to be suffering from bacteremia. A portion of the blood sample is used to inoculate a blood culture bottle (e.g., a BD BACTEC™ aerobic blood culture bottle). The blood culture bottles are incubated as recommended by the manufacturer. In parallel, an aliquot of the blood sample obtained from the patient is subjected to a T2MR-based detection method, for example, the method described in Example 22 of WO 2012/054639 in conjunction with a T2Dx® device. In this example, the T2MR-based method identifies S. aureus as being present in the blood sample within 3 hours from the start of the assay.
(§2) Next, based on the identification of S. aureus in the blood sample, the blood culture bottle is sampled by lysis filtration or lysis centrifugation followed by plating of the cell pellet on to chromogenic media (e.g., CHROMAGAR™ MRSA (Chromagar)) or directly on to an agar-based antimicrobial gradient test (e.g., an ETEST®) in order to test whether the S. aureus isolate from the subject's blood is sensitive to oxacillin, vancomycin, trimethoprim-sulfamethoxazole (BACTRIM™), doxycycline, daptomycin, and linezolid. Additionally, T2MR-based real-time PCR is performed as described, for example, in Example 19 of WO 2012/054639, is used to determine the expression level of antibiotic resistance markers such as mecA. […]

S. aureus = assay: administration to the subject with bacteremia (S. aureus); type: in vivo, human
S. aureus isolate [2] = assay: growth on chromogenic media (e.g., CHROMAGAR MRSA); type: cell-based; conditions: Example 3
Procedure: as §1, §2

S. aureus isolate [3] = assay: T2MR-based AST with direct cell detection by vancomycin-conjugated magnetic nanoparticles; conditions: media with pre-determined levels of agent, Example 6
Procedure: as §1, with “In one such example, a blood” for “A blood”
Based on the T2MR-based detection and identification of S. aureus in the subject's blood, a subsequent blood draw is taken directly to media that contain either no antimicrobial agents or pre-determined levels of oxacillin, vancomycin, trimethoprim-sulfamethoxazole (BACTRIM™), doxycycline, daptomycin, or linezolid. Aliquots are taken from these media at time intervals, and the aliquots are subjected to T2MR-based direct detection of S. aureus cells, as described, for example, in Example 4 of International Patent Publication No. WO 2012/129281. S. aureus cells are detected by labeling with magnetic nanoparticles. […]

Candida albicans isolate = assay: AST testing of isolated colonies, agar-based AST method (e.g., ETEST) or full panel AST device (e.g., VITEK 2); type: cell-based; conditions: Candida albicans isolate from subject's blood, Example 2
Procedure: as §1, with “Candidemia.” for “bacteremia.”, “as” for “the method”, “1 above.” for “22 of WO 2012/054639 in conjunction with a T2Dx® device.”, “Candida albicans” for “S. aureus”, “sample.” for “sample within 3 hours from the start of the assay.”
Next, based on the identification of Candida albicans in the blood sample, the blood culture bottle is sampled by lysis filtration or lysis centrifugation followed by plating of the cell pellet on to Samouraud Glucose media, thereby encouraging growth of Candida albicans and early growth of the isolated colonies. These colonies are subjected to AST testing, either using an agar-based AST method (e.g., ETEST®) or a full panel AST device (e.g., VITEK® 2). Several appropriate anti-fungal drugs are tested, e.g., fluconazole, itraconazole, amphotericin B, micafungin, voriconazole, and caspofungin.

Candida glabrata = assay: administration to the subject with Candidemia (Candida glabrata); type: in vivo, human; conditions: appropriate dose, subject with Candidemia (C. glabrata), Example 4
C. glabrata isolate = assay: T2MR-based AST, real-time PCR of housekeeping gene as proxy for growth; type: cell-based, Candida glabrata; conditions: media with pre-determined levels of agent, Example 4
Procedure: A blood sample is obtained from a subject suspected to be suffering from Candidemia. The blood sample obtained from the patient is subjected to a T2MR-based detection method, for example, the method described in Example 22 of WO 2012/054639 in conjunction with a T2Dx® device. Briefly, PCR is performed using a forward primer that includes the oligonucleotide sequence 5′-GGCATGCCTGTTTGAGCGTC-3′ (SEQ ID NO: 13) and a reverse primer that includes the oligonucleotide sequence 5′-GCTTATTGATATGCTTAAGTTCAGCGGGT-3′ (SEQ ID NO: 14). Magnetic particles conjugated individually to the capture probes described in Table 1 are used to test for the presence of Candida albicans, Candida glabrata, Candida krusei, Candida parapsilosis, and Candida tropicalis. In this example, Candida glabrata is identified as being present in the subject's blood sample within 3 h from the start of the assay.
Based on the T2MR-based detection and identification of Candida glabrata in the subject's blood, a subsequent blood draw is taken directly to media that contain either no antimicrobial agents or pre-determined levels of fluconazole, itraconazole, amphotericin B, or caspofungin. […]

C. albicans isolate = assay: as above; type: cell-based, Candida albicans; conditions: media with pre-determined levels of agent, Example 5
Procedure: A blood sample is obtained from a subject suspected to be suffering from Candidemia. The blood sample obtained from the patient is subjected to a T2MR-based detection method, for example, as described above in Example 4. In this example, Candida albicans is identified as being present in the subject's blood sample within 3 h from the start of the assay.
Based on the T2MR-based detection and identification of Candida albicans in the subject's blood, a subsequent blood draw is taken directly to media that contain either no antimicrobial agents or pre-determined levels of antimicrobial agents such as fluconazole, itraconazole, amphotericin B, and caspofungin. Aliquots are taken from these media at time intervals, and the aliquots are subjected to T2MR-based real-time PCR is performed as described, for example, in Example 19 of WO 2012/054639, to detect the expression level of the multiple drug resistance gene MDR1 as well as a housekeeping gene such as beta-actin (ACT1) as a proxy for growth of the C. albicans isolate in the media. […] A growth curve is made by plotting the T2 signal over time.

Question: With C[C@@H]1[C@H](O)[C@@H](C)/C=C/C=C/C=C/C=C/C=C/C=C/C=C/[C@H](O[C@@H]2O[C@H](C)[C@@H](O)[C@H](N)[C@@H]2O)C[C@@H]2O[C@](O)(C[C@@H](O)C[C@@H](O)[C@H](O)CC[C@@H](O)C[C@@H](O)CC(=O)O[C@H]1C)C[C@H](O)[C@H]2C(=O)O [amphotericin B] as the compound, how does the “treatment outcome in the subject after switch from fluconazole” value (Candida albicans; MDR1 expression elevated after fluconazole, therapy switched, Example 5) read?
Answer: The value was “successful in treating the subject”.

Question: What does the source list for trimethoprim-sulfamethoxazole?
Answer: antimicrobial susceptibility of the isolate (S. aureus isolate [1]): sensitive; treatment outcome in the subject (S. aureus): treating the bacteremia

Question: For COc1cccc(OC)c1C(=O)N[C@@H]1C(=O)N2[C@@H]1SC(C)(C)[C@@H]2C(=O)O [methicillin], which “antimicrobial resistance of the isolate, based on the color of the colonies” value (S. aureus isolate [2]) is on record?
Answer: Its value is “resistant”.

Question: For CN[C@H](CC(C)C)C(=O)N[C@H]1C(=O)N[C@@H](CC(N)=O)C(=O)N[C@H]2C(=O)N[C@H]3C(=O)N[C@H](C(=O)N[C@H](C(=O)O)c4cc(O)cc(O)c4-c4cc3ccc4O)[C@H](O)c3ccc(c(Cl)c3)Oc3cc2cc(c3O[C@@H]2O[C@H](CO)[C@@H](O)[C@H](O)[C@H]2O[C@H]2C[C@](C)(N)[C@H](O)[C@H](C)O2)Oc2ccc(cc2Cl)[C@H]1O [vancomycin], which “treatment outcome in the subject” value (S. aureus) is on record?
Answer: The value was “treating the subject's bacteremia”.

Question: What about the “antimicrobial susceptibility of the isolate, growth curve of T2 signal over time” value (shortened to “antimicrobial susceptibility … over time”) (S. aureus isolate [3]) of the same compound?
Answer: The value was “particularly sensitive”.

Question: For OC(Cn1cncn1)(Cn1cncn1)c1ccc(F)cc1F [fluconazole], which “antimicrobial susceptibility of the isolate” value (Candida albicans isolate) is on record?
Answer: Its value is “particularly sensitive”.

Question: What about the “treatment outcome in the subject” value (Candida glabrata) of the same compound?
Answer: Its value is “treating the subject's Candidemia”.

Question: And the “antimicrobial susceptibility … over time” value (C. glabrata isolate)?
Answer: Its value is “particularly sensitive”.

Question: And the “treatment outcome in the subject” value (Candida albicans; appropriate dose, subject with Candidemia (C. albicans))?
Answer: The value was “treating the subject's Candidemia”.

Question: And the “antimicrobial susceptibility … over time” value (C. albicans isolate)?
Answer: The value was “particularly sensitive”.
